Laboratory results published in the supplement of paper PMC11451515.

Legend:
Settings in all cases: 48 h
NOMO1 [1] = experiment: AUC of viability dose-response curve (% viability x log10 dose units); higher = less sensitive
Method in brief: (§1)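 Leukemia cells adapted to each medium (500 or 1000 cells/well, 1536-well plates) were exposed to library compounds in DMSO for 48 h at 37°C at 11 threefold doses, 47 μM to 0.79 nM. Luminescence by CellTiter-Glo One was normalised per plate to DMSO and cell-free wells, then fitted with a four-parameter log-logistic curve on log10 dose. Curves above full viability were scaled and quality-control failures removed before area under the curve was integrated by trapezoidal rule.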

P12-Ichikawa [2] = experiment: as above
Method in brief: as §1

SEM cells [3] = experiment: as above
Method in brief: as §1

P12-Ichikawa [4] = experiment: cell viability relative to DMSO control; higher = less cytotoxic
Method in brief: (§2)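 Library compounds in DMSO were pin-dosed into 1536-well plates (5 μl) holding NOMO1 or SEM (500 cells/well) or P12-Ichikawa (1000 cells/well) leukemia cells, across an 11-point threefold series of 47 μM to 0.79 nM. Each cell line had been adapted for at least four passages in each medium. CellTiter-Glo One luminescence was read after 48 h at 37°C. Viability is the per-plate percentage relative to DMSO wells, with cell-free wells as background.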

SEM cells [5] = experiment: as above
Method in brief: as §2

NOMO1 [6] = experiment: as above
Method in brief: as §2

O=C1Cc2cc(CCN3CCN(c4nsc5ccccc45)CC3)c(Cl)cc2N1
AUC of viability dose-response curve
Settings | NOMO1 [1] | P12-Ichikawa [2] | SEM cells [3]
HPLM + 10% dialyzed FBS | 444 | 459 | 380
RPMI 5 mM glucose + 10% FBS | 460 | 469 | 366
RPMI 5 mM glucose + 10% dialyzed FBS | 457 | 464 | 362

CO[C@H]1O[C@@H]2O[C@@]3(C)CC[C@H]4[C@H](C)CC[C@@H]([C@H]1C)[C@@]24OO3
AUC of viability dose-response curve
Settings | NOMO1 [1] | P12-Ichikawa [2] | SEM cells [3]
HPLM + 10% dialyzed FBS | 436 | 433 | 429
RPMI 5 mM glucose + 10% FBS | 433 | 430 | 456
RPMI 5 mM glucose + 10% dialyzed FBS | 405 | 417 | 451

C/C(=C\C(=O)Nc1ccccc1C(=O)O)c1ccc2ccccc2c1
AUC of viability dose-response curve
Settings | HPLM + 10% dialyzed FBS | RPMI 5 mM glucose + 10% FBS | RPMI 5 mM glucose + 10% dialyzed FBS
P12-Ichikawa [2] | 461 | 461 | 456
SEM cells [3] | 435 | 447 | 463

CC(C)C1=N[N](C\2=C1C(=O)N\C(=N2)CC3=CC=C(OCCO)C=C3)C4=C(Cl)C=CC=C4Cl
cell viability [%]
Settings | HPLM + 10% dialyzed FBS | RPMI 5 mM glucose + 10% FBS | RPMI 5 mM glucose + 10% dialyzed FBS
P12-Ichikawa [4], 0.000781 µM | 116 | – | 118
P12-Ichikawa [4], 0.00234 µM | 116 | – | 129
P12-Ichikawa [4], 0.00702 µM | 109 | – | 117
P12-Ichikawa [4], 0.0211 µM | 108 | – | 124
P12-Ichikawa [4], 0.0632 µM | 107 | – | 127
P12-Ichikawa [4], 0.19 µM | 44 | – | 31.8
P12-Ichikawa [4], 0.569 µM | 10.7 | – | 10.9
P12-Ichikawa [4], 1.71 µM | 5.9 | – | 5.95
P12-Ichikawa [4], 5.12 µM | 6.83 | – | 6.23
P12-Ichikawa [4], 15.4 µM | 6.62 | – | 6.55
P12-Ichikawa [4], 46.1 µM | 5.21 | – | 3.77
SEM cells [5], 0.000781 µM | 95.1 | 52.1 | 90.4
SEM cells [5], 0.00234 µM | 125 | 98.6 | 102
SEM cells [5], 0.00702 µM | 108 | 85.3 | 100
SEM cells [5], 0.0211 µM | 109 | 75.8 | 109
SEM cells [5], 0.0632 µM | 95.9 | 76.5 | 107
SEM cells [5], 0.19 µM | 16.8 | 13.8 | 34.2
SEM cells [5], 0.569 µM | 8.67 | 6.73 | 8.73
SEM cells [5], 1.71 µM | 6.16 | 4.7 | 6.73
SEM cells [5], 5.12 µM | 5.35 | 4.18 | 5.07
SEM cells [5], 15.4 µM | 4.68 | 4.05 | 4.3
SEM cells [5], 46.1 µM | 3.44 | 2.06 | 3.59

AUC of viability dose-response curve
Settings | HPLM + 10% dialyzed FBS | RPMI 5 mM glucose + 10% FBS | RPMI 5 mM glucose + 10% dialyzed FBS
NOMO1 [1] | 225 | 226 | 222
P12-Ichikawa [2] | 244 | 241 | 239

COc1ccc(-c2cc3c(C)nc(N)nc3n([C@H]3CC[C@H](OCCO)CC3)c2=O)cn1
cell viability [%]
Settings | NOMO1 [6] | P12-Ichikawa [4] | SEM cells [5]
HPLM + 10% dialyzed FBS, 0.000781 µM | 96.9 | 103 | 99.4
HPLM + 10% dialyzed FBS, 0.00234 µM | 97.5 | 107 | 91.8
HPLM + 10% dialyzed FBS, 0.00702 µM | 88.7 | 103 | 84.6
HPLM + 10% dialyzed FBS, 0.0211 µM | 76.4 | 85.5 | 77.2
HPLM + 10% dialyzed FBS, 0.0632 µM | 74.2 | 88.3 | 70.5
HPLM + 10% dialyzed FBS, 0.19 µM | 50 | 72 | 64.9
HPLM + 10% dialyzed FBS, 0.569 µM | 52.6 | 66.2 | 47
HPLM + 10% dialyzed FBS, 1.71 µM | 38 | 66 | 32.6
HPLM + 10% dialyzed FBS, 5.12 µM | 38.8 | 63.9 | 24.3
HPLM + 10% dialyzed FBS, 15.4 µM | 28.3 | 63.5 | 6.37
HPLM + 10% dialyzed FBS, 46.1 µM | 20 | 48.2 | 1
RPMI 5 mM glucose + 10% FBS, 0.000781 µM | 93.6 | 98.2 | 105
RPMI 5 mM glucose + 10% FBS, 0.00234 µM | 87 | 95.3 | 105
RPMI 5 mM glucose + 10% FBS, 0.00702 µM | 90.7 | 85.9 | 97.8
RPMI 5 mM glucose + 10% FBS, 0.0211 µM | 84.8 | 78 | 99.8
RPMI 5 mM glucose + 10% FBS, 0.0632 µM | 87.4 | 70.2 | 79.8
RPMI 5 mM glucose + 10% FBS, 0.19 µM | 64.5 | 55.1 | 62.1
RPMI 5 mM glucose + 10% FBS, 0.569 µM | 68.5 | 51.4 | 55.3
RPMI 5 mM glucose + 10% FBS, 1.71 µM | 47.7 | 44.8 | 29.1
RPMI 5 mM glucose + 10% FBS, 5.12 µM | 43.1 | 42.7 | 29.6
RPMI 5 mM glucose + 10% FBS, 15.4 µM | 40.3 | 37.9 | 9.56
RPMI 5 mM glucose + 10% FBS, 46.1 µM | 28.4 | 35.4 | 1.08
RPMI 5 mM glucose + 10% dialyzed FBS, 0.000781 µM | 86.8 | 96.6 | 79.7
RPMI 5 mM glucose + 10% dialyzed FBS, 0.00234 µM | 86.6 | 98.2 | 86.1
RPMI 5 mM glucose + 10% dialyzed FBS, 0.00702 µM | 80.7 | 85.1 | 75.4
RPMI 5 mM glucose + 10% dialyzed FBS, 0.0211 µM | 75.1 | 76 | 75.3
RPMI 5 mM glucose + 10% dialyzed FBS, 0.0632 µM | 66.4 | 72.3 | 69.7
RPMI 5 mM glucose + 10% dialyzed FBS, 0.19 µM | 58.4 | 58.7 | 58.9
RPMI 5 mM glucose + 10% dialyzed FBS, 0.569 µM | 50 | 55.5 | 46.4
RPMI 5 mM glucose + 10% dialyzed FBS, 1.71 µM | 41.2 | 45.9 | 34.7
RPMI 5 mM glucose + 10% dialyzed FBS, 5.12 µM | 37.6 | 39.3 | 29.3
RPMI 5 mM glucose + 10% dialyzed FBS, 15.4 µM | 34.8 | 38.7 | 14.6
RPMI 5 mM glucose + 10% dialyzed FBS, 46.1 µM | 23.3 | 37.4 | 1.67

AUC of viability dose-response curve
Settings | HPLM + 10% dialyzed FBS | RPMI 5 mM glucose + 10% FBS | RPMI 5 mM glucose + 10% dialyzed FBS
NOMO1 [1] | 286 | 322 | 278
P12-Ichikawa [2] | 351 | 299 | 304
